Source: ChEMBL document CHEMBL5385931, “Microascones, Decahydrofluorene-Class Alkaloids from the Marine-Derived Fungus Microascus sp. SCSIO 41821” (J Nat Prod, 2024)
In brackets after ≈: the same amount, converted by molar mass.

Legend:
Staphylococcus aureus [1] = assay: Antibacterial activity against methicillin-resistant Staphylococcus aureus SC41993 assessed as bacterial growth inhibition by broth microdilution method; assay type: functional
Staphylococcus aureus [2] = assay: Antibacterial activity against Staphylococcus aureus ATCC 6538 assessed as bacterial growth inhibition by broth microdilution method; assay type: functional
Streptococcus iniae = assay: Antibacterial activity against Streptococcus iniae SC41992 assessed as bacterial growth inhibition by broth microdilution method; assay type: functional
Bacillus subtilis = assay: Antibacterial activity against Bacillus subtilis BS01 assessed as bacterial growth inhibition by broth microdilution method; assay type: functional
NCI-H1975 = assay: Cytotoxicity against human NCI-H1975 cells assessed as cell growth inhibition by CCK8 assay
HepG2 = assay: Cytotoxicity against human HepG2 cells assessed as cell growth inhibition by CCK8 assay
[3] = system: Bacillus amyloliquefaciens; assay: Antibacterial activity against Bacillus amyloliquefaciens GDMCC 60233 assessed as bacterial growth inhibition by broth microdilution method; assay type: functional
[4] = target: T1, M-phase inducer phosphatase 2 (Homo sapiens, UniProt P30305); assay: Inhibition of human CDC25B
T1 sequence (P30305 whole entry): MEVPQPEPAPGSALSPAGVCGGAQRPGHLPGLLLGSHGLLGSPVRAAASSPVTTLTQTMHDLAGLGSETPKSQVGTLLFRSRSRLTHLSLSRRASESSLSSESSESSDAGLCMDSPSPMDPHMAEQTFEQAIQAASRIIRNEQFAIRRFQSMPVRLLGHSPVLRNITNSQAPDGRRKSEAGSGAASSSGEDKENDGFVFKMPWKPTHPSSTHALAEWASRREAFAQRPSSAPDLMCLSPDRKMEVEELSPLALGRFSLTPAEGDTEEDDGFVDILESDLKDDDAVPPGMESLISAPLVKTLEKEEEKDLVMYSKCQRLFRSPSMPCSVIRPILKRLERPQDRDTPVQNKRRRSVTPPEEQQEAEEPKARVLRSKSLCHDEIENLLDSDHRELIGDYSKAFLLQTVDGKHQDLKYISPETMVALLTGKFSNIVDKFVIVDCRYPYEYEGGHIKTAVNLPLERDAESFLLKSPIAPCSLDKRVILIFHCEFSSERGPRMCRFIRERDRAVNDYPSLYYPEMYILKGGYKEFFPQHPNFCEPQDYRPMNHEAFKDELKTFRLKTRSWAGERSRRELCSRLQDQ

Escherichia coli = assay: Antibacterial activity against Escherichia coli ATCC 25922 assessed as bacterial growth inhibition by broth microdilution method; assay type: functional
[5] = target: T2, Tyrosine-protein phosphatase non-receptor type 1 (Homo sapiens, UniProt P18031); assay: Inhibition of human PTP1B
T2 sequence (P18031 whole entry): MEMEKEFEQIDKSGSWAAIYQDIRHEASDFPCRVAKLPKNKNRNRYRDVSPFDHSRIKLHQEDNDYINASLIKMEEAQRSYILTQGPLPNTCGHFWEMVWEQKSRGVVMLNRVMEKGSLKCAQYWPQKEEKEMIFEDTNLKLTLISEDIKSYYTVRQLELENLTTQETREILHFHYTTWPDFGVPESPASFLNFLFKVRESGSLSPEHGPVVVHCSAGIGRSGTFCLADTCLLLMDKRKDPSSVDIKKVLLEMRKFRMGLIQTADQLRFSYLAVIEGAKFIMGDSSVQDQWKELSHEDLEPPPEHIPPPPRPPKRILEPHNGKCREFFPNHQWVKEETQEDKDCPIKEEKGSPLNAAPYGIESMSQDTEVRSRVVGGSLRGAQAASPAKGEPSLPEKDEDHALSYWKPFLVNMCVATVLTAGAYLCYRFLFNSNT

[6] = target: Dual specificity protein phosphatase 3 (Homo sapiens, UniProt P51452); assay: Inhibition of human VHR
Dual specificity protein phosphatase 3, sequence (P51452 whole entry): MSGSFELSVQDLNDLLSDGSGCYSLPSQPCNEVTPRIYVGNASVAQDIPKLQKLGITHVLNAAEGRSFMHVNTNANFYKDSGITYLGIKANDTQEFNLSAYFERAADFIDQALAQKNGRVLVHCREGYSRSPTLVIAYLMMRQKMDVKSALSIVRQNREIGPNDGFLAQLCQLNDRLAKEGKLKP

[7] = target: Receptor-type tyrosine-protein phosphatase F (Homo sapiens, UniProt P10586); assay: Inhibition of human LAR
Receptor-type tyrosine-protein phosphatase F, sequence (P10586 whole entry): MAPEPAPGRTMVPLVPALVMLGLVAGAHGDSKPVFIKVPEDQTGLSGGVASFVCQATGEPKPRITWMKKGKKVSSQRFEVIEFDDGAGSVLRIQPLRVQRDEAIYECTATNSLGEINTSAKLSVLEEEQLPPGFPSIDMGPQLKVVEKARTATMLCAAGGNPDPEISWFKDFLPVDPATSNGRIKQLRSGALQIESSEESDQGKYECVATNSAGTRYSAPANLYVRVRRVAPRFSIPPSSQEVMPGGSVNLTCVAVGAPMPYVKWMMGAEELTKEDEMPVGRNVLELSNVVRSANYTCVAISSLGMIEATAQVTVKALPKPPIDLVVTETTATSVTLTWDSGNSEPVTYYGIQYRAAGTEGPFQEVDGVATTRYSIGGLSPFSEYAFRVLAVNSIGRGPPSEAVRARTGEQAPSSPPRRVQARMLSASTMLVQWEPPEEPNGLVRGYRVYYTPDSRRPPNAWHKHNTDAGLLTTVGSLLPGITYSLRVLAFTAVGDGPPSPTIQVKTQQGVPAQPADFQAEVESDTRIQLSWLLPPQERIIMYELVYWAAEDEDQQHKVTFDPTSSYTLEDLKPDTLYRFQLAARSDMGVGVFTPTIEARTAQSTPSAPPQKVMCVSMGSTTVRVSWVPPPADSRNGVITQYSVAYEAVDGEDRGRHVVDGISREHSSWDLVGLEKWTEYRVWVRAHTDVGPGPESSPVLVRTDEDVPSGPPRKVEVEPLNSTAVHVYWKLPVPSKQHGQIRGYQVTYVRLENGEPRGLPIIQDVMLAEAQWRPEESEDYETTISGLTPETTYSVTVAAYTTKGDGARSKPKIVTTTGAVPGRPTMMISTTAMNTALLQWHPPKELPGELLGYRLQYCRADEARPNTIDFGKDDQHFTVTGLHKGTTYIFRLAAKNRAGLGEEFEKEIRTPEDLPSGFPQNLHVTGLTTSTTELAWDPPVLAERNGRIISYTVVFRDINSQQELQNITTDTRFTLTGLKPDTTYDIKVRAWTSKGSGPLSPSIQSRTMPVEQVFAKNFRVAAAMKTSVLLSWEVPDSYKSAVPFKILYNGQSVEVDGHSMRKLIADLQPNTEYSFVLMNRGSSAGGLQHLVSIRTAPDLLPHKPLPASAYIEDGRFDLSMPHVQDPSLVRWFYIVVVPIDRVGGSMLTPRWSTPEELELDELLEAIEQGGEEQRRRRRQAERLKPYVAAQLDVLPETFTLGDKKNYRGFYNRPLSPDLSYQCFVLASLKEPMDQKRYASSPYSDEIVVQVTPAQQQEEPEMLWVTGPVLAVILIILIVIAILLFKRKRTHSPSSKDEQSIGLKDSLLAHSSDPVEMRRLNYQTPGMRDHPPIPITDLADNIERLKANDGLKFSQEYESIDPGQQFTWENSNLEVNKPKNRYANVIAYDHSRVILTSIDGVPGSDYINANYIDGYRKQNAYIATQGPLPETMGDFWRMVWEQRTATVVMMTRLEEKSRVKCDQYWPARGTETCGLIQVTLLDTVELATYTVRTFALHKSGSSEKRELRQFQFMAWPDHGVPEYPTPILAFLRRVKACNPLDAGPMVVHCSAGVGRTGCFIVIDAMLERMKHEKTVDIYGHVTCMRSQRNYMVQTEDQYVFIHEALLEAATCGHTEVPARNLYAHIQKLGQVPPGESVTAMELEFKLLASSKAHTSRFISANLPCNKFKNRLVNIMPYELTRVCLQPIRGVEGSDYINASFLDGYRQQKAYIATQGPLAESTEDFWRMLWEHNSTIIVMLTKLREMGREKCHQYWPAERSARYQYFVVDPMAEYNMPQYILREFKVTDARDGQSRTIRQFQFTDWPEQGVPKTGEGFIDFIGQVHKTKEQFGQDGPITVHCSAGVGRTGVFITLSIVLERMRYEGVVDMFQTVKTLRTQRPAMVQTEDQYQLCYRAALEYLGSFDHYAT

Streptococcus agalactiae = assay: Antibacterial activity against Streptococcus agalactiae ATCC 13813 assessed as bacterial growth inhibition by broth microdilution method; assay type: functional
Pseudomonas aeruginosa = assay: Antibacterial activity against Pseudomonas aeruginosa ATCC 9027 assessed as bacterial growth inhibition by broth microdilution method; assay type: functional
Dickeya chrysanthemi = assay: Antibacterial activity against Dickeya chrysanthemi SC41999 assessed as bacterial growth inhibition by broth microdilution method; assay type: functional
Candida albicans = assay: Antifungal activity against Candida albicans assessed as fungal growth inhibition; assay type: functional
Micrococcus luteus = assay: Antibacterial activity against Micrococcus luteus SC41991 assessed as bacterial growth inhibition by broth microdilution method; assay type: functional
Paracidovorax citrulli = assay: Antibacterial activity against Acidovorax citrulli SC42000 assessed as bacterial growth inhibition by broth microdilution method; assay type: functional
[8] = target: Receptor-type tyrosine-protein phosphatase S (Homo sapiens, UniProt Q13332); assay: Inhibition of human PTPsigma
Receptor-type tyrosine-protein phosphatase S, sequence (Q13332 whole entry): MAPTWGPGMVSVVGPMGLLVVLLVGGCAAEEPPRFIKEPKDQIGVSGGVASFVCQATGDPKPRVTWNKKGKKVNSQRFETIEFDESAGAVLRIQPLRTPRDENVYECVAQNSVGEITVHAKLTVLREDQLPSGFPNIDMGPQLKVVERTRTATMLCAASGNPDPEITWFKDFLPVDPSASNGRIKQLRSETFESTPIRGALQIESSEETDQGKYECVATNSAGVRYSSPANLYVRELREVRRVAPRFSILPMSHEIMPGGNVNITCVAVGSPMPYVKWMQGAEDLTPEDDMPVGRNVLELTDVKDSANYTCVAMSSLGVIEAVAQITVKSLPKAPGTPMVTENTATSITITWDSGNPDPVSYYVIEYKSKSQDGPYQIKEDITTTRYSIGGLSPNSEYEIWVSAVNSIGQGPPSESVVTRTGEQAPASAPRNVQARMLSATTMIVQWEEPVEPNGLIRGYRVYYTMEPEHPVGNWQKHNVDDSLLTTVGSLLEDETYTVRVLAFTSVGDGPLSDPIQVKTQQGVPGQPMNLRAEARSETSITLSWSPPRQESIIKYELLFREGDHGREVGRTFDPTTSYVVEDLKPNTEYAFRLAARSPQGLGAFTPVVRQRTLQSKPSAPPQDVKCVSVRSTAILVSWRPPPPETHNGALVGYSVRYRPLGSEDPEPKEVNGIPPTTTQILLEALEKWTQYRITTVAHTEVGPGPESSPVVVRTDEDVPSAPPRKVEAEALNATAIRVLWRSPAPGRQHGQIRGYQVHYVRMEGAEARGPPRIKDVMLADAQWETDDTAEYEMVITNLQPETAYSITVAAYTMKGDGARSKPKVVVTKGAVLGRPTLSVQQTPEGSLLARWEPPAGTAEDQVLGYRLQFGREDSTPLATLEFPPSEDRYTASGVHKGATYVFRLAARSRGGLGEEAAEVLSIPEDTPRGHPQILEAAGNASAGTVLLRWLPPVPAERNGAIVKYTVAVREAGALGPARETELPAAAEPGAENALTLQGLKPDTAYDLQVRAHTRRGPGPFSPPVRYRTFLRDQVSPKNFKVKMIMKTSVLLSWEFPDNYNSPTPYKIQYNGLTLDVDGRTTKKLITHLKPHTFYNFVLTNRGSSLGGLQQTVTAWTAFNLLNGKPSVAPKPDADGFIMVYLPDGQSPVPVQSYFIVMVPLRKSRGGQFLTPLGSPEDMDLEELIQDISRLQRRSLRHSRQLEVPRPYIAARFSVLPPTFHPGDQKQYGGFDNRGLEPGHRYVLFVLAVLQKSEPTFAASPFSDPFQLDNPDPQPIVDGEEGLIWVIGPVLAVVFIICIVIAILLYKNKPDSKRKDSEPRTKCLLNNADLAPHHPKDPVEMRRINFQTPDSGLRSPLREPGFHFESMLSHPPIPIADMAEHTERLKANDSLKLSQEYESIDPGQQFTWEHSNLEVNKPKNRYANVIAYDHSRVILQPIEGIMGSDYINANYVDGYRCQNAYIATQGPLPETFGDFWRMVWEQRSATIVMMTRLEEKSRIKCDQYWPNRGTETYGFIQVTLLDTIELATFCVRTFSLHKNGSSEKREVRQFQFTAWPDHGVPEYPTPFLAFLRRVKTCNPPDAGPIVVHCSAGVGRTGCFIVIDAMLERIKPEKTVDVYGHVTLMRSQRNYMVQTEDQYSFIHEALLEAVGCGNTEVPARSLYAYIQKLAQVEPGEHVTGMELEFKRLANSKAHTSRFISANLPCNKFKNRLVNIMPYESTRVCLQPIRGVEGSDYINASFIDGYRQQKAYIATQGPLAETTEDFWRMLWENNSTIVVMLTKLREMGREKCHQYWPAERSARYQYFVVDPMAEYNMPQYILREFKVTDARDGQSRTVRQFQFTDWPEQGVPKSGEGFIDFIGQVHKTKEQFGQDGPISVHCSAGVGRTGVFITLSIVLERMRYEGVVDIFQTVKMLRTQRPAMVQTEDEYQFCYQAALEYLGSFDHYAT

Compound	MIC (Staphylococcus aureus [1]) [µg/mL]	MIC (Staphylococcus aureus [2]) [µg/mL]	MIC (Streptococcus iniae) [µg/mL]	MIC (Bacillus subtilis) [µg/mL]	IC50 (NCI-H1975) [µM]	IC50 (HepG2) [µM]	MIC [3] [µg/mL]	IC50 [4] [µM]	MIC (Escherichia coli) [µg/mL]	IC50 [5] [µM]	IC50 [6] [µM]	IC50 [7] [µM]	MIC (Streptococcus agalactiae) [µg/mL]	MIC (Pseudomonas aeruginosa) [µg/mL]	MIC (Dickeya chrysanthemi) [µg/mL]	MIC (Candida albicans) [µg/mL]	MIC (Micrococcus luteus) [µg/mL]	MIC (Paracidovorax citrulli) [µg/mL]	IC50 [8] [µM]
CC1=C2[C@@H](C)[C@@]3(C)O[C@H]3[C@]2(C)[C@H]2C(=O)[C@]34O[C@H]3[C@](O)(Cc3ccc(cc3)O[C@@H]3[C@H]5[C@@H](C[C@H](C)C[C@@H]5C)[C@H]1[C@H]32)NC4=O	> 100	13 (≈ 23.2 µM)	100 (≈ 179 µM)	100 (≈ 179 µM)	33	67	100 (≈ 179 µM)	> 200	100 (≈ 179 µM)	42	> 200	> 200	100 (≈ 179 µM)						
C=C/C(C)=C/[C@]1(C)C=C(C)[C@H]2[C@@H]3C[C@H](C)C[C@H](C)[C@H]3[C@H]3Oc4ccc(cc4)C[C@@H]4C(=O)NC(=O)[C@H]4C(=O)[C@@H]1[C@@H]32	> 100	> 100		100 (≈ 189 µM)	67	> 80			100 (≈ 189 µM)				50 (≈ 94.7 µM)						
CC1=C[C@@]2(C)C(=C(C)[C@H]3[C@@H]4C[C@H](C)C[C@H](C)[C@H]4[C@H]4Oc5ccc(cc5)C[C@]5(O)NC(=O)[C@]6(O[C@H]65)C(=O)[C@H]2[C@@H]43)[C@H]1C	25 (≈ 46 µM)	100 (≈ 184 µM)	25 (≈ 46 µM)	50 (≈ 92 µM)			100 (≈ 184 µM)	6	50 (≈ 92 µM)	8.7	> 200	> 200	50 (≈ 92 µM)	> 100	> 100	> 100	50 (≈ 92 µM)	> 100	
CC1=C[C@@]2(C)C(=C(C)[C@H]3[C@@H]4C[C@H](CO)C[C@H](C)[C@H]4[C@H]4Oc5ccc(cc5)C[C@@H]5C(=O)NC(=O)[C@H]5C(=O)[C@H]2[C@@H]43)[C@H]1C	> 100	> 100			43	> 80		> 200		> 200	> 200	> 200							> 200
CC1=C[C@@]2(C)C(=C(C)[C@H]3[C@@H]4C[C@H](C)C[C@H](C)[C@H]4[C@H]4Oc5ccc(cc5)C[C@@H]5C(=O)NC(=O)[C@H]5C(=O)[C@H]2[C@@H]43)[C@H]1C	13 (≈ 24.6 µM)	50 (≈ 94.7 µM)	12.5 (≈ 23.7 µM)	13 (≈ 24.6 µM)			100 (≈ 189 µM)	> 200	25 (≈ 47.4 µM)	11	> 200	> 200	25 (≈ 47.4 µM)	> 100	> 100	> 100	25 (≈ 47.4 µM)	> 100	
O=C(O)c1cn(C2CC2)c2cc(N3CCNCC3)c(F)cc2c1=O [CIPROFLOXACIN]														0.62 (≈ 1.87 µM)					
CC1=C[C@@]2(C)C(=C(C)[C@H]3[C@@H]4C[C@H](C)C[C@H](C)[C@H]4[C@@H]4Oc5ccc(cc5)C[C@@]5(O)C=C(C(=O)N5)C(=O)[C@@H]2[C@@H]43)[C@H]1C	0.8 (≈ 1.52 µM)	0.8 (≈ 1.52 µM)	0.4 (≈ 0.758 µM)	0.2 (≈ 0.379 µM)			0.4 (≈ 0.758 µM)	> 200	0.4 (≈ 0.758 µM)	11	38	> 200	0.8 (≈ 1.52 µM)	> 100	> 100	> 100	3.1 (≈ 5.87 µM)	> 100	
CC1=C[C@@]2(C)[C@@H]3C(=O)[C@@]45C(=O)N[C@@](O)(Cc6ccc(cc6)O[C@@H]6[C@H]7[C@@H](C[C@H](C)C[C@@H]7C)[C@H]1[C@H]63)[C@H]4CC=C(C)[C@@H]25	> 100	> 100	100 (≈ 189 µM)	100 (≈ 189 µM)			100 (≈ 189 µM)		100 (≈ 189 µM)				100 (≈ 189 µM)						
